{"source": "patent US5180672A", "about": "“Ascorbate oxidase isolated from Acremonium sp. HI-25 ferm BP-3124” (Asahi Kasei Kogyo Kabushiki Kaisha, priority 1990, dated 1993)", "key": {"[1]": {"molecular_target": "T1, ascorbate oxidase from cucumber (Toyobo ASCORBATE OXIDASE, EC 1.10.3.3) (Cucumis sativus, UniProt P14133)", "T1 sequence (P14133 34-587)": "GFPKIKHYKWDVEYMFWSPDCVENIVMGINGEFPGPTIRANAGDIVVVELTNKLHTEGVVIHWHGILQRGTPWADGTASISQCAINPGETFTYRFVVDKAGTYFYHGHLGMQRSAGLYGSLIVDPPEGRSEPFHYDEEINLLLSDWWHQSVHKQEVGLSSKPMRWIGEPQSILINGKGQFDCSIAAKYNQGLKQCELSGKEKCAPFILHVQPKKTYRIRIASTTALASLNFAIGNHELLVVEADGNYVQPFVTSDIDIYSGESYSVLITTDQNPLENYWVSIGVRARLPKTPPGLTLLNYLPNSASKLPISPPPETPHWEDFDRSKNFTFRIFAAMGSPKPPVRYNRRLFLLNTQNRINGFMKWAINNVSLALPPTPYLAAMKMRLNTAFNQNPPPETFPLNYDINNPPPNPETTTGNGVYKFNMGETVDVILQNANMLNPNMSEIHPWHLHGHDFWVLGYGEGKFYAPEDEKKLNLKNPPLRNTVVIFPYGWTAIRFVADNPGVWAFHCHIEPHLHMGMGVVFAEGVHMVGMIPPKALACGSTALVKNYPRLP", "conditions": "reference J. Biochem. 64, 189 (1968); Toyobo catalog; read-out: K m (L-ascorbate); cited from earlier work"}, "[2]": {"test_system": "ascorbate oxidase produced by Acremonium sp. HI-25", "format": "biochemical", "conditions": "for residual relative activities (%): 10 min, 1000 µM"}, "[3]": {"test_system": "ascorbate oxidase from Myrothecium verrucaria, hypha", "conditions": "at 1 mM; printed as effective (50% at 1 mM); cited from earlier work"}, "[4]": {"test_system": "ascorbate oxidase from Acremonium sp. HI-25", "conditions": "NaN3 0.2%, 2880 min"}}, "note": "Read-outs that look alike come from different tables or passages of the source.", "data": [{"smiles": "O=C1O[C@H]([C@@H](O)CO)C(O)=C1O", "note": "[L-ascorbate]", "values": [{"measurement": "Km", "setting": "[1]", "result": 250, "unit": "µM"}]}, {"smiles": "CCN(CC)C(=S)[S-].[Na+]", "note": "[sodium N,N-diethyldithiocarbamate]", "values": [{"measurement": "residual relative activities (%)", "setting": "[2]", "result": 101, "unit": "%"}, {"measurement": "inhibition by inhibitor", "setting": "[3]", "result": 50, "unit": "%"}]}, {"smiles": "[N-]=[N+]=[N-]", "note": "[sodium azide]", "values": [{"measurement": "inactivation by inhibitor (in words)", "setting": "[2]", "result": "inactivated"}, {"measurement": "relative activities, 100 as buffers only", "setting": "[4]; PIPES buffer with 0.1 % BSA", "result": 78.4, "unit": "%"}, {"measurement": "relative activities, 100 as buffers only", "setting": "[4]; Pi buffer with 0.1 % BSA", "result": 76.2, "unit": "%"}, {"measurement": "relative activities, 100 as buffers only", "setting": "[4]; Tris buffer with 0.1 % BSA", "result": 78.6, "unit": "%"}]}, {"smiles": "[Na+].[Na+].[S-2]", "note": "[Na2 S, sodium sulfide]", "values": [{"measurement": "residual relative activities (%)", "setting": "[2]", "result": 3, "unit": "%"}]}, {"smiles": "O=C(O)CN(CCN(CC(=O)O)CC(=O)O)CC(=O)O", "note": "[EDTA]", "values": [{"measurement": "residual relative activities (%)", "setting": "[2]", "result": 106, "unit": "%"}]}]}
